Laboratory results taken from patent US20140378406A1, “SILVER BASED GELS FOR ANTIMICROBIAL APPLICATIONS” (The University of Akron, priority 2012, published 2014).

Assays:
Assay in all cases: Minimal inhibitory concentration (MIC), CLSI procedures
Type in all cases: cell-based
Pseudomonas aeruginosa = tested on: Pseudomonas aeruginosa
Experimental: (§1) The combination of aqueous solutions of 50 mM glutathione and 50 mM silver carbene complex SCC22 at ambient conditions in a 1:1.25 ratio (final concentration 20 mM glutathione and 25 mM SCC22) results in a colorless hydrogel material. The gel was tested to determine its minimal inhibitory concentration (MIC) on three bacterial species including Pseudomonas aeruginosa, Staphylococcus aureus, and Escherichia coli using procedures published by the Clinical and Laboratory Standards Institute. The combination of aqueous solutions of 50 mM glutathione and 50 mM silver carbene complex SCC1 at ambient conditions in a 1:1.67 ratio (final concentration 15 mM glutathione and 25 mM SCC1) results in a colorless hydrogel material. The gel was tested to determine its minimal inhibitory concentration (MIC) on three bacterial species including Pseudomonas aeruginosa, Staphylococcus aureus, and Escherichia coli using procedures published by the Clinical and Laboratory Standards Institute. The combination of aqueous solutions of 50 mM glutathione and 50 mM silver carbene complex SCC8 at ambient conditions in a 1:1.25 ratio (final concentration 20 mM glutathione and 25 mM SCC8) results in a colorless hydrogel material (GSH8). The gel was tested to determine its minimal inhibitory concentration (MIC) on three bacterial species including Pseudomonas aeruginosa, Staphylococcus aureus, and Escherichia coli using procedures published by the Clinical and Laboratory Standards Institute.

Staphylococcus aureus = tested on: Staphylococcus aureus
Experimental: as §1

Escherichia coli = tested on: Escherichia coli
Experimental: as §1

NC[C@H]1O[C@H](O[C@H]2[C@H](O)[C@@H](O[C@H]3O[C@H](CO)[C@@H](O)[C@H](N)[C@H]3O)[C@H](N)C[C@@H]2N)[C@H](N)C[C@@H]1O [Tobramycin]
4 µg/mL: MIC P. aeruginosa (Pseudomonas aeruginosa) | MIC S. aureus (Staphylococcus aureus) | MIC E. coli (Escherichia coli)
